Results as given in patent US20230248626A1, “Compositions Comprising (Bio)-Alkanediols” (Symrise AG, priority 0001, published 2023).

Columns and labels:
Format in all cases: cell-based
Escherichia coli (EC) = assay: Preservation efficacy test (PET), European Pharmacopoeia 5.1.3
Method in brief: (§1)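 Preparations challenged with prescribed inoculums per European Pharmacopoeia 5.1.3, counting microorganisms after the prescribed time. Adequate preservation means a significant fall or no increase in counts.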

[1] = tested on: Staphylococcus aureus (SA); assay: as above
Method in brief: as §1

Candida albicans (CA) = assay: as above
Method in brief: as §1

human sebaceous glands = assay: Sebum production of micro-dissected, cultured human sebaceous glands (lipids/proteins after six days); set-up: sebum reduction: concentration or dose not given beside the values; conditions: compared to untreated control; six days; single donor (FIG. 4)
Protocol: Additional tests were performed with human sebaceous glands in order to verify the modulatory activity of different 1,2-alkanediols and 2,3-alkanediols on sebum secretion. Several microbial species on the skin are lipid dependent and feed on the human sebum (e.g. Corynebacterium, Propionibacterium). Accordingly, sebum reduction can indirectly support the reduction of microorganisms on the skin and in this way also indirectly support e.g. dandruff or acne reduction.
For these experiments sebaceous glands had been micro-dissected and cultured with medium. The medium without any supplement served as untreated control. Medium with 5 μM Capsaicin served as positive control. Additionally, culture medium was supplemented with different concentrations of alkanediols. After six days the sebaceous glands were collected and lipids and proteins quantified. The total lipid amount being representative of sebum production was obtained by normalizing the quantified lipids upon the quantified proteins (i.e. mg of lipids/mg of proteins).

[2] = tested on: reactive oxygen species (ROS) on ex vivo skin; assay: DCF assay, ROS score on ex vivo skin, aqueous/alcoholic (ethanolic) test system; conditions: vehicle (EtOH/H2O) plus alkanediol only
Protocol: A dichlorofluorescein test (DCF) assay was performed in order to determine the amount of reactive oxygen species (ROS) on ex vivo skin treated with different test samples in a lipophilic or an aqueous/alcoholic system as described below.
DCF assay—assay principle: Ex vivo skin was incubated with 2′,7′-dichlorodihydrofluorescein diacetate at 37° C., 5% CO2. After PBS washing, samples were exposed or not to cumene hydroperoxide. Immediately after exposure, ex vivo skin samples were frozen in liquid nitrogen and 5 μm cryostat sections were made and fixed with acetone to allow the visualisation of fluorescence generated by ROS in cells of the reconstructed skins. The resulting fluorescence was measured at EX/EM 504/524 nm. Green fluorescence was quantified in ex vivo skin using ImageJ software. The depth of immunostaining was measured as follows: green DCFH-DE positive cells were automatically detected using Histolab software and the distance between dermal epidermal junction and the deepest positive cells were measured in each condition. Means were compared using a student's test. […]
The image acquisition was performed by using Olympus BX51 microscope and Olympus DP70 camera. For each skin sample two skin sections have been taken and the related fluorescent images acquired and analyzed. Thus, for each test condition, 12 images have been acquired and analyzed (i.e. 12 data). […]

CCCCC(O)C(C)O (centres unmarked) [2,3-heptanediol]
number of microorganisms after 2 days (Escherichia coli (EC); 0.1% in shampoo): 1,100,000 | number of microorganisms after 7 days (Escherichia coli (EC); 0.1% in shampoo): 1,500,000 | number of microorganisms after 14 days (Escherichia coli (EC); 0.1% in shampoo): 1,600,000 | number of microorganisms after 28 days (Escherichia coli (EC); 0.1% in shampoo): 1,400,000 | number of microorganisms after 2 days (Escherichia coli (EC); 0.2% in o/w emulsion): 170,000 | number of microorganisms after 7 days (Escherichia coli (EC); 0.2% in o/w emulsion): 1,600 | number of microorganisms after 14 days (Escherichia coli (EC); 0.2% in o/w emulsion): 82 | number of microorganisms after 28 days (Escherichia coli (EC); 0.2% in o/w emulsion): 1 | number of microorganisms after 2 days (Escherichia coli (EC); 0.4% in o/w emulsion): 320,000 | number of microorganisms after 7 days (Escherichia coli (EC); 0.4% in o/w emulsion): 2,400 | number of microorganisms after 14 days (Escherichia coli (EC); 0.4% in o/w emulsion): 1 | number of microorganisms after 28 days (Escherichia coli (EC); 0.4% in o/w emulsion): 1 | number of microorganisms after 2 days (Escherichia coli (EC); 0.4% in shampoo): 1,200,000 | number of microorganisms after 7 days (Escherichia coli (EC); 0.4% in shampoo): 100,000 | number of microorganisms after 14 days (Escherichia coli (EC); 0.4% in shampoo): 75,000 | number of microorganisms after 28 days (Escherichia coli (EC); 0.4% in shampoo): 380,000 | number of microorganisms after 2 days ([1]; 0.1% in shampoo): 27,000 | number of microorganisms after 7 days ([1]; 0.1% in shampoo): 490 | number of microorganisms after 14 days ([1]; 0.1% in shampoo): 1 | number of microorganisms after 28 days ([1]; 0.1% in shampoo): 1 | number of microorganisms after 2 days ([1]; 0.2% in o/w emulsion): 1,300,000 | number of microorganisms after 7 days ([1]; 0.2% in o/w emulsion): 790,000 | number of microorganisms after 14 days ([1]; 0.2% in o/w emulsion): 55 | number of microorganisms after 28 days ([1]; 0.2% in o/w emulsion): 1 | number of microorganisms after 2 days ([1]; 0.4% in o/w emulsion): 1,000,000 | number of microorganisms after 7 days ([1]; 0.4% in o/w emulsion): 12,000 | number of microorganisms after 14 days ([1]; 0.4% in o/w emulsion): 1 | number of microorganisms after 28 days ([1]; 0.4% in o/w emulsion): 1 | number of microorganisms after 2 days ([1]; 0.4% in shampoo): 3,500 | number of microorganisms after 7 days ([1]; 0.4% in shampoo): 1 | number of microorganisms after 14 days ([1]; 0.4% in shampoo): 1 | number of microorganisms after 28 days ([1]; 0.4% in shampoo): 1 | number of microorganisms after 2 days (Candida albicans (CA); 0.1% in shampoo): 110,000 | number of microorganisms after 7 days (Candida albicans (CA); 0.1% in shampoo): 20,000 | number of microorganisms after 14 days (Candida albicans (CA); 0.1% in shampoo): 100 | number of microorganisms after 28 days (Candida albicans (CA); 0.1% in shampoo): 1 | number of microorganisms after 2 days (Candida albicans (CA); 0.2% in o/w emulsion): 1,900,000 | number of microorganisms after 7 days (Candida albicans (CA); 0.2% in o/w emulsion): 2,200,000 | number of microorganisms after 14 days (Candida albicans (CA); 0.2% in o/w emulsion): 2,100,000 | number of microorganisms after 28 days (Candida albicans (CA); 0.2% in o/w emulsion): 370,000 | number of microorganisms after 2 days (Candida albicans (CA); 0.4% in o/w emulsion): 640,000 | number of microorganisms after 7 days (Candida albicans (CA); 0.4% in o/w emulsion): 350,000 | number of microorganisms after 14 days (Candida albicans (CA); 0.4% in o/w emulsion): 130,000 | number of microorganisms after 28 days (Candida albicans (CA); 0.4% in o/w emulsion): 11,000 | number of microorganisms after 2 days (Candida albicans (CA); 0.4% in shampoo): 81 | number of microorganisms after 7 days (Candida albicans (CA); 0.4% in shampoo): 1 | number of microorganisms after 14 days (Candida albicans (CA); 0.4% in shampoo): 1 | number of microorganisms after 28 days (Candida albicans (CA); 0.4% in shampoo): 1 | sebum reduction (human sebaceous glands): 30% | antioxidative efficacy without antioxidant (in words) [2]: do not have an antioxidative efficacy

CCCCCC(O)C(C)O (centres unmarked) [2,3-octanediol]
number of microorganisms after 2 days (Escherichia coli (EC); 0.1% in shampoo): 2,600,000 | number of microorganisms after 7 days (Escherichia coli (EC); 0.1% in shampoo): 3,800,000 | number of microorganisms after 14 days (Escherichia coli (EC); 0.1% in shampoo): 1,500,000 | number of microorganisms after 28 days (Escherichia coli (EC); 0.1% in shampoo): 1,300,000 | number of microorganisms after 2 days (Escherichia coli (EC); 0.1% in wet wipes solution): 1,300,000 | number of microorganisms after 7 days (Escherichia coli (EC); 0.1% in wet wipes solution): 2,600,000 | number of microorganisms after 14 days (Escherichia coli (EC); 0.1% in wet wipes solution): 850,000 | number of microorganisms after 28 days (Escherichia coli (EC); 0.1% in wet wipes solution): 1,600 | number of microorganisms after 2 days (Escherichia coli (EC); 0.2% in o/w emulsion): 48,000 | number of microorganisms after 7 days (Escherichia coli (EC); 0.2% in o/w emulsion): 290 | number of microorganisms after 14 days (Escherichia coli (EC); 0.2% in o/w emulsion): 1 | number of microorganisms after 28 days (Escherichia coli (EC); 0.2% in o/w emulsion): 1 | number of microorganisms after 2 days (Escherichia coli (EC); 0.4% in shampoo): 1,100,000 | number of microorganisms after 7 days (Escherichia coli (EC); 0.4% in shampoo): 1,900,000 | number of microorganisms after 14 days (Escherichia coli (EC); 0.4% in shampoo): 2,100,000 | number of microorganisms after 28 days (Escherichia coli (EC); 0.4% in shampoo): 600,000 | number of microorganisms after 2 days ([1]; 0.1% in shampoo): 2,000 | number of microorganisms after 7 days ([1]; 0.1% in shampoo): 1 | number of microorganisms after 14 days ([1]; 0.1% in shampoo): 1 | number of microorganisms after 28 days ([1]; 0.1% in shampoo): 1 | number of microorganisms after 2 days ([1]; 0.1% in wet wipes solution): 50 | number of microorganisms after 7 days ([1]; 0.1% in wet wipes solution): 50 | number of microorganisms after 14 days ([1]; 0.1% in wet wipes solution): 50 | number of microorganisms after 28 days ([1]; 0.1% in wet wipes solution): 50 | number of microorganisms after 2 days ([1]; 0.2% in o/w emulsion): 1,300,000 | number of microorganisms after 7 days ([1]; 0.2% in o/w emulsion): 84,000 | number of microorganisms after 14 days ([1]; 0.2% in o/w emulsion): 1 | number of microorganisms after 28 days ([1]; 0.2% in o/w emulsion): 1 | number of microorganisms after 2 days ([1]; 0.4% in shampoo): 4,000 | number of microorganisms after 7 days ([1]; 0.4% in shampoo): 1 | number of microorganisms after 14 days ([1]; 0.4% in shampoo): 1 | number of microorganisms after 28 days ([1]; 0.4% in shampoo): 1 | number of microorganisms after 2 days (Candida albicans (CA); 0.1% in shampoo): 200,000 | number of microorganisms after 7 days (Candida albicans (CA); 0.1% in shampoo): 19,000 | number of microorganisms after 14 days (Candida albicans (CA); 0.1% in shampoo): 390 | number of microorganisms after 28 days (Candida albicans (CA); 0.1% in shampoo): 1 | number of microorganisms after 2 days (Candida albicans (CA); 0.1% in wet wipes solution): 5,000,000 | number of microorganisms after 7 days (Candida albicans (CA); 0.1% in wet wipes solution): 2,400,000 | number of microorganisms after 14 days (Candida albicans (CA); 0.1% in wet wipes solution): 6,900,000 | number of microorganisms after 28 days (Candida albicans (CA); 0.1% in wet wipes solution): 5,500,000 | number of microorganisms after 2 days (Candida albicans (CA); 0.2% in o/w emulsion): 2,000,000 | number of microorganisms after 7 days (Candida albicans (CA); 0.2% in o/w emulsion): 1,800,000 | number of microorganisms after 14 days (Candida albicans (CA); 0.2% in o/w emulsion): 1,900,000 | number of microorganisms after 28 days (Candida albicans (CA); 0.2% in o/w emulsion): 390,000 | number of microorganisms after 2 days (Candida albicans (CA); 0.4% in shampoo): 44,000 | number of microorganisms after 7 days (Candida albicans (CA); 0.4% in shampoo): 17,000 | number of microorganisms after 14 days (Candida albicans (CA); 0.4% in shampoo): 510 | number of microorganisms after 28 days (Candida albicans (CA); 0.4% in shampoo): 1
